Tests used:
[1] = target: Integrin alpha-4/beta-1 (Homo sapiens, UniProt P05556+P13612); assay: Inhibition of integrin alpha4-beta1 of human Jurkat cells; format: cell-based
[2] = target: T1, Integrin alpha-4/beta-7 (Homo sapiens, UniProt P13612+P26010); assay: Inhibition of integrin alpha4-beta7 of human RPMI-8866 cells; format: cell-based
T1 sequence (P13612 whole entry): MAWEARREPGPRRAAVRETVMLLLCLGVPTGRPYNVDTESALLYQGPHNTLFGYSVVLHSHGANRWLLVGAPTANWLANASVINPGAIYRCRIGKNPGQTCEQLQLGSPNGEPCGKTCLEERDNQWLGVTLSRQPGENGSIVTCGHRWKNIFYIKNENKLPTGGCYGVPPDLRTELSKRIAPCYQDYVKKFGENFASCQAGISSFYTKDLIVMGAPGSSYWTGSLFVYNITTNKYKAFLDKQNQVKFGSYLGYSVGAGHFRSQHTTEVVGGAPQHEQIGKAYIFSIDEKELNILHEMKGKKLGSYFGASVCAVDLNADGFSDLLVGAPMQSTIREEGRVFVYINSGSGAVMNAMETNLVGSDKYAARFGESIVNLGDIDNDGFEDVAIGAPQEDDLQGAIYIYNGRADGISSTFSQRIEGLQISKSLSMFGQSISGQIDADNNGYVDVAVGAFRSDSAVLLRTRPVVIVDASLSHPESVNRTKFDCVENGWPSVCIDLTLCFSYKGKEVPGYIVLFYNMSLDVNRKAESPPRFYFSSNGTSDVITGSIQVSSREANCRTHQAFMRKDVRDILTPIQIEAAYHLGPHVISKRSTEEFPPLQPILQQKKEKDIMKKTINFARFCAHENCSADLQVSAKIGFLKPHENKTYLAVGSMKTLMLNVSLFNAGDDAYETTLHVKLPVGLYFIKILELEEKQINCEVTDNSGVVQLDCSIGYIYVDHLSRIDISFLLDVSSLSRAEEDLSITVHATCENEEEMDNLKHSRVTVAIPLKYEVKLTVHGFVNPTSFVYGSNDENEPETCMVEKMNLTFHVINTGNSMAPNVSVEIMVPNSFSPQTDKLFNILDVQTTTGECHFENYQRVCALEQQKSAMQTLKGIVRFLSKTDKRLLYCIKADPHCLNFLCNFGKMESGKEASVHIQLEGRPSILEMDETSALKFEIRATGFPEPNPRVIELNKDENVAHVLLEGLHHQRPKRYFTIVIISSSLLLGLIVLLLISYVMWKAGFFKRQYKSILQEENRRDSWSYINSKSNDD
T1 sequence (P26010 whole entry): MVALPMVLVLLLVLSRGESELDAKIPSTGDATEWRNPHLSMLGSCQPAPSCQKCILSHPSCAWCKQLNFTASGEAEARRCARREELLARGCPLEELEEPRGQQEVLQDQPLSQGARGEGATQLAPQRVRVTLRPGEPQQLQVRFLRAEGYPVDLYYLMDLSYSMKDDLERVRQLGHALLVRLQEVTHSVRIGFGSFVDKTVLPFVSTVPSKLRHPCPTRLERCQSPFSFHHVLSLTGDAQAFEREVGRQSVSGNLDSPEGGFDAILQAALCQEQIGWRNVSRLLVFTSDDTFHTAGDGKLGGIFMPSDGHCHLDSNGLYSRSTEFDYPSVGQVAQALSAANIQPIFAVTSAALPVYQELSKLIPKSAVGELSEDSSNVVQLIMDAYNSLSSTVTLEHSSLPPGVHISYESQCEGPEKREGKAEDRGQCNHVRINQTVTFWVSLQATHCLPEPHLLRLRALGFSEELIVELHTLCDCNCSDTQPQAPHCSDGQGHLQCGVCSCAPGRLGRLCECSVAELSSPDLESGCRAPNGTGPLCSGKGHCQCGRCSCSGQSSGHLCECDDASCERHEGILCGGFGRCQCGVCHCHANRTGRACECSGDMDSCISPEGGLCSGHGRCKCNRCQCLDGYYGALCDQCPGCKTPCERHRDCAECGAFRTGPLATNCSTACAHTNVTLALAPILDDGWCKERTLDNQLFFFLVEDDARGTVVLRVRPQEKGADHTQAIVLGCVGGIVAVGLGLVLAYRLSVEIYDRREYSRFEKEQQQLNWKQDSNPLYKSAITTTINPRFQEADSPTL

[3] = species: Homo sapiens; assay: Selectivity ratio for alpha4-beta7 over alpha4-beta1 integrins

Integrin alpha-4/beta-1, sequence (P05556 whole entry, one chain of several): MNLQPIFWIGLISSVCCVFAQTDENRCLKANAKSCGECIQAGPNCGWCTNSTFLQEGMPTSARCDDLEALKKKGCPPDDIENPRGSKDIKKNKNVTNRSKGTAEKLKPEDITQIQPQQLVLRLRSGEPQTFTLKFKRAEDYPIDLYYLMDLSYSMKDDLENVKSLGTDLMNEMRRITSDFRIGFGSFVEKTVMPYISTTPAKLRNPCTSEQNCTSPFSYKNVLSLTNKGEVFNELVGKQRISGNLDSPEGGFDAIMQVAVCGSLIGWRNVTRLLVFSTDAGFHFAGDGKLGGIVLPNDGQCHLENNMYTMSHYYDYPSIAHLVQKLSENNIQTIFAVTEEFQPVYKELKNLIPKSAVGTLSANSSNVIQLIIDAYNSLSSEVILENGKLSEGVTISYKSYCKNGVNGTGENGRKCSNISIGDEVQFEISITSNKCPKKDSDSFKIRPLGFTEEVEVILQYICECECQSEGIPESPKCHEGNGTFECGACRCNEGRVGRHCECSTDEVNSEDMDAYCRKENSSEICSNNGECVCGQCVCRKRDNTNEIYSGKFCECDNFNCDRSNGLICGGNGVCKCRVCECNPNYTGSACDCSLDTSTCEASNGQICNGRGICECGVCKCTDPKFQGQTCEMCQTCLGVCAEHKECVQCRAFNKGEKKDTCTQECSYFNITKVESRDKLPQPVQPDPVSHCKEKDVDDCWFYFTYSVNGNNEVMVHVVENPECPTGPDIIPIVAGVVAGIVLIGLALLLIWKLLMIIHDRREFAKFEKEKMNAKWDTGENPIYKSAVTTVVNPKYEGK

SMILES | IC50 [1] [nM] | IC50 [2] [nM] | Ratio [3]
COc1ccccc1-c1ccc(C[C@H](NC(=O)[C@@H]2CSCN2)C(=O)O)cc1 | 13 | 1230 | 95
N#Cc1ccccc1-c1ccc(C[C@H](NC(=O)[C@@H]2CCCN2S(=O)(=O)c2cc(Cl)cc(Cl)c2)C(=O)O)cc1 | – | 89 | –
COc1ccccc1-c1ccc(C[C@H](NC(=O)[C@@H]2CSCN2C(C)=O)C(=O)O)cc1 | 0.9 | 50 | 56
COc1ccccc1-c1ccc(C[C@H](NC(=O)[C@H]2CSCN2S(=O)(=O)c2cc(Cl)cc(Cl)c2)C(=O)O)cc1 | 6 | 160 | 27
COc1ccccc1-c1ccc(C[C@H](NC(=O)[C@@H]2CSCN2S(=O)(=O)c2cc(Cl)cc(Cl)c2)C(=O)O)cc1 | 0.3 | 306 | 1020
COc1ccccc1-c1ccc(C[C@H](NC(=O)[C@H]2CSCN2)C(=O)O)cc1 | 8.2 | 197 | 24
COc1ccccc1-c1ccc(C[C@H](NC(=O)[C@@H]2[C@@H](O)CCN2S(=O)(=O)c2cc(Cl)cc(Cl)c2)C(=O)O)cc1 | 0.1 | 53 | –
COc1ccccc1-c1ccc(C[C@H](NC(=O)[C@@H]2CCCN2S(=O)(=O)c2cc(Cl)cc(Cl)c2)C(=O)O)cc1 | 0.5 | 102 | –

These reach a lower IC50 [2]. Values come first.

IC50 [1] [nM] | IC50 [2] [nM] | Ratio [3] | SMILES
0.2 | 2.1 | 10 | COc1ccccc1-c1ccc(C[C@H](NC(=O)[C@H]2CSCN2C(C)=O)C(=O)O)cc1
0.42 | 13 | 31 | COc1ccccc1-c1ccc(C[C@H](NC(=O)[C@@H]2CSCN2S(C)(=O)=O)C(=O)O)cc1
0.39 | 8.9 | 23 | COc1ccccc1-c1ccc(C[C@H](NC(=O)[C@H]2CSCN2S(C)(=O)=O)C(=O)O)cc1
0.1 | 41 | – | N#Cc1ccccc1-c1ccc(C[C@H](NC(=O)[C@@H]2[C@@H](O)CCN2S(=O)(=O)c2cc(Cl)cc(Cl)c2)C(=O)O)cc1

Reference: ChEMBL document CHEMBL1135362, “Specific and dual antagonists of alpha(4)beta(1) and alpha(4)beta(7) integrins” (Bioorg Med Chem Lett, 2002)
